The values below come from publication PMC12704579, “New Anticancer 4‐Aryldihydropyrimidinone‐5‐Carboxylates Targeting Hsp90” (Chemical Biology & Drug Design, 2025).

Several values for one entry are separate records, joined by “and”; a condition that tells them apart may be missing. Identical values can stand only once.

For one data set, the system named is HEK-293 cells. The experiment in a line: CellTiter-Blue cell viability assay, HEK-293 (24 h). It is filed as cell-based, human. The settings on record: for GI50: Homo sapiens, HEK293, 24 h incubation time. As for the experimental part: (§1) Human Embryonic Kidney cells (HEK‐293) and human breast cancer cells (MCF‐7, MDA‐MB‐231 and HCC1954) were cultured in complete growth media: […] 1X (Gibco); 10% v/v Fetal Bovine Serum (FBS, Sigma Dorset UK) and L‐glutamine (2 mM, Invitrogen). SW‐480‐WT cells were maintained in selective media made up of Dulbecco's Modified Eagle Medium (Gibco), enriched with […] of Geneticin Selective Antibiotic (G418 Sulfate; Gibco, Thermo Fisher). Cells were incubated at a 5% CO2 atmosphere at 37°C.
(§2) Cells were cultured in 96‐well plates in 90 μL at a seeding density of 1 × 10^6 cells per well. Compound samples were prepared at different concentrations (1 mM, 100 μM, 10 μM, 1 μM, 100 nM, 10 nM) and 10 μL of each concentration was seeded in each well. Two different negative controls were used: DMSO 0.01% and 0.001%. Paclitaxel (30% w/v) was used as a positive control. Cells were treated for 24 h after which 20 μL of CellTitre‐Blue reagent (Promega, Southampton, UK) was added and incubated for 2 h at 37°C in 5% CO2. Fluorescence was measured at 560/590 nm on a Fluorostar Optima plate reader (BMG Labtech, Bucks, UK). Assay end points were normalised to 0% (DMSO only) and fitted to a semilog plot using at least n = 3 technical replicates (n = 6 for DMSO control and paclitaxel control) and N = 3 independent replicates. The curve fit was performed using the GraphPad Prism software and the standard Hill equation.
(§3) In view of previous reports on Hsp90 inhibitors and their effects on cancer cell viability (Eachkoti et al. [2014]) and clonogenicity (Kinzel et al. [2016]), new compounds were tested for inhibition of cell viability within both non‐tumourigenic (HEK‐293) and breast cancer cell lines (MDA‐MB‐231) at a fixed concentration of 10 μM. The well‐established CellTiter‐Blue endpoint assay was used to assess cell viability. New compounds were also assessed in a colony forming assay (MCF‐7 breast cancer cell line), used as an efficacy screening to provide an indication of the inhibition of clonogenicity for these small molecules (Table 1).

The subject of a further data set is MDA-MB-231 cells. The experiment in a line: CellTiter-Blue cell viability assay, MDA-MB-231 (24 h). Type of data set: cell-based, human. The settings on record: for GI50 / viability at 10 µM: Homo sapiens, MDA-MB-231, 24 h; for GI50: 24 h incubation time. As for the experimental part:
as §1, §2, §3

Another data set has as its system MCF-7 cells. The experiment in a line: Colony forming assay, MCF-7. It is filed as cell-based, human. The settings on record: for IC50: Homo sapiens, MCF7, 168 h, 7 days; for % Clonogenicity (MCF-7, 10 μM): percentage of survival colonies, 7-day incubation, standardised to DMSO control. As for the experimental part:
as §1
Cells were seeded in a 12‐well plate at 400 cells per well. One hour after the seeding of the cells, compounds (1 mM, 100 μM, 10 μM, 1 μM, 100 nM, 10 nM) or vehicle were added into the wells in triplicate (DMSO vehicle 0.1% and 1%). After 7 days, colonies were stained with 350 μL of crystal violet solution, incubated for 30 min at room temperature, then wells were washed in water and dried. At least the best 3 independent experiments out of 5 independent repeats were used to perform the statistical analysis of the results. Colonies were counted by GelCount Colony Counter (Oxford Optronix Ltd.) using the GelCount 1.1.8.0 software. Assay end points were normalised to 0% (DMSO only) and fitted to a semi‐log plot using at least n = 3 technical replicates (n = 6 for DMSO control and N = 3 independent replicates). The curve fit was performed using GraphPad Prism.
as §3

Data set [1] addresses T1, Recombinant human Hsp90 alpha protein (Homo sapiens, UniProt P07900).
T1 construct: human full‐length protein, expressed in Escherichia coli; His tag (C); purchased Abcam ab80369; host or cells: Escherichia coli
The experiment in a line: Transcreener ADP FP Hsp90 ATPase assay. The conditions noted are these: Recombinant human HSP90, 100 μM ATP; read-out: ATPase assay on rh-Hsp90 IC50. Type of data set: biochemical. As for the experimental part: Transcreener ADP (cat. no. 3004‐1K) and ADP2 (cat. no. 3010‐1K) FP assay kits were obtained from Bellbrook Laboratories. Recombinant human Hsp90 alpha protein (active), human full‐length protein, expressed in Escherichia coli with > 90% purity and C‐terminus His tag, was purchased from Abcam (ab80369). All FP assays were carried out in black, 384‐well, low‐volume, polystyrene nonbinding microplates from Corning Life Sciences. All basic buffer components were obtained from Sigma‐Aldrich Chemical Co. 17‐AAG (Figure 1) was obtained from Abcam. Using the Transcreener ADP FP kit, the conditions for the recombinant human Hsp90 ATPase reaction were 50 mM HEPES (pH 7.4), 20 mM KCl, 2 mM EGTA, 4 mM MgCl2, and 0.01% Brij‐35 in a 10‐μL total assay volume. The final assay concentration of ATP was 100 μM for Hsp90. Due to the relatively low level of ATPase activity compared with other enzymes, the plate was incubated at 37°C and run over 1, 2 and 3 h time points. The reaction was stopped, and the ADP was detected by adding 10 μL of 50 mM HEPES (pH 7.4), 400 mM NaCl, 20 mM EDTA, 0.01% Brij35, 75 μg/mL anti‐ADP monoclonal antibody, and 4 nM ADP far red tracer. The plate was sealed, centrifuged at 600 g for 1 min, and left at room temperature for 1 h. FP readings for the Hsp90 ATPase Transcreener assays were performed on a Clariostar plate reader ([…]). A blank mP signal composed of protein, antibody, labelled ADP, but no ATP substrate gave similar mP values to those seen in the no‐protein controls. The upper limit of the assay window was defined by a no‐protein control, and the mP in the presence of heat shock protein was subtracted from this control to generate a change in polarisation (ΔmP), which was plotted on the activity graphs. Therefore, the data take into account the spontaneous hydrolysis of ATP. Each value is the mean of triplicate determinations with standard deviations (SD) shown. IC50 values were calculated using GraphPad Prism software with the nonlinear regression curve fitted to the log (inhibitor concentration) against the raw mP values on the linear portion of the standard curve.

Data set [2] has as its system HCC1954, MCF-7 and HEK-293 cells. Nature of the data set: Growth inhibition assay (CellTitre-Blue endpoint), 72 h incubation. Type of data set: cell-based, human. The settings on record: paclitaxel positive control, Figure 3. As for the experimental part:
as §2, with “equation. […]” for “equation.”
FIGURE 3 Growth inhibition assay (CellTitre‐Blue endpoint) in human breast cancer cell lines HCC1954 and MCF‐7, and non‐tumorigenic HEK‐293 cells for hit compounds 5d and 5e (72 h incubation). Growth inhibition is represented by the percentage of relative fluorescence units standardised to DMSO control. […]

[3] abbreviates: CellTiter-Blue, 24 h incubation, 10 μM test compound, standardised to DMSO control.
The mark [4] stands for this setting: CellTiter-Blue, 24 h incubation, 10 μM test compound, standardised to DMSO control, 10 µM.

For the compound `COc1ccc(C2NC(=O)NC(C)=C2C(=O)OCc2ccc3c(c2)OCO3)c(F)c1` (stereo not shown) [Compound 5d, Benzo[d][1,3]dioxol‐5‐ylmethyl‐4‐(2‐Fluoro‐4‐Methoxyphenyl)‐6‐Methyl‐2‐Oxo‐1,2,3,4‐Tetrahydropyrimidine‐5‐Carboxylate], the GI50 with HEK-293 cells is 92.4 µM; in the data set with MDA-MB-231 cells, 79.3 µM. The viability at 10 µM with MDA-MB-231 cells (setting [3]) was found to be 86.3 ± 3.8%. In addition, the results for the half-inhibitory concentration (IC50) (with MCF-7 cells; in data set [1]) were 0.29 µM and 3.25 µM, respectively. In addition, the “% Clonogenicity (MCF-7, 10 μM)” value in the data set with MCF-7 cells is 49.75% and 49.75 ± 4.35%. In data set [2], the “Growth inhibitory effect / effect on cell viability, longer incubation” value is “devoid of significant effects on cell viability”.

Take `COc1ccc(COC(=O)C2=C(C)NC(=O)NC2c2ccc(Cl)cc2)cc1C` (stereo not shown) [Compound 5e, 4‐Methoxy‐3‐Methylbenzyl‐4‐(4‐Chlorophenyl)‐6‐Methyl‐2‐Oxo‐1,2,3,4‐Tetrahydropyrimidine‐5‐Carboxylate]: the “% Viability (HEK-293, 10 μM)” value in the data set with HEK-293 cells (setting [4]) is reported as 82.07 ± 1.28%. Besides, the concentration for 50% growth inhibition (GI50) with HEK-293 cells amounted to 86.3 µM; in the data set on MDA-MB-231 cells it was 12.6 µM. The “% Viability (MDA-MB-231, 10 μM)” value in the data set with MDA-MB-231 cells (setting [4]) was 79.43 ± 8.8%. The viability at 10 µM with MDA-MB-231 cells (setting [3]) was < 80%. In addition, the results for the IC50 (in the data set on MCF-7 cells; in data set [1]) were 0.91 µM and 6.4 µM, respectively. In the data set on MCF-7 cells, the “% Clonogenicity (MCF-7, 10 μM)” value was 59.96 ± 1.95%. In data set [2], the “Growth inhibitory effect / effect on cell viability, longer incubation” value is “comparable to the cytotoxic drug control paclitaxel”.
